# Assay results published in patent US9273028B2, “Heterocyclic tyrosine kinase inhibitors” (Biogen MA Inc., priority 2010, dated 2016).
# Target: T1, BTK (Homo sapiens, UniProt Q06187)
# T1 construct: purchased Upstate 14-552
# Test: In vitro BTK kinase assay (BTK-POLYGAT-LS)
# Format: biochemical
# Conditions: IC50 (10 uM ATP)
# Description: In vitro BTK Kinase Assay
# The purpose of the BTK in vitro assay is to determine compound potency against BTK through the measurement of IC50. […] For a typical assay, a 24 μL aliquot of a ATP/peptide master mix (final concentration; ATP 10 μM, polyGAT 100 nM) in kinase buffer (10 mM Tris-HCl pH 7.5, 10 mM MgCl2, 200 μM Na3PO4, 5 mM DTT, 0.01% Triton X-100, and 0.2 mg/ml casein) is added to each well. […] The assay is incubated for 30 minutes before being stopped with 28 μL of a 50 mM EDTA solution. […] The plate is covered and incubated for 45 minutes at room temperature.
# T1 sequence (Q06187 whole entry): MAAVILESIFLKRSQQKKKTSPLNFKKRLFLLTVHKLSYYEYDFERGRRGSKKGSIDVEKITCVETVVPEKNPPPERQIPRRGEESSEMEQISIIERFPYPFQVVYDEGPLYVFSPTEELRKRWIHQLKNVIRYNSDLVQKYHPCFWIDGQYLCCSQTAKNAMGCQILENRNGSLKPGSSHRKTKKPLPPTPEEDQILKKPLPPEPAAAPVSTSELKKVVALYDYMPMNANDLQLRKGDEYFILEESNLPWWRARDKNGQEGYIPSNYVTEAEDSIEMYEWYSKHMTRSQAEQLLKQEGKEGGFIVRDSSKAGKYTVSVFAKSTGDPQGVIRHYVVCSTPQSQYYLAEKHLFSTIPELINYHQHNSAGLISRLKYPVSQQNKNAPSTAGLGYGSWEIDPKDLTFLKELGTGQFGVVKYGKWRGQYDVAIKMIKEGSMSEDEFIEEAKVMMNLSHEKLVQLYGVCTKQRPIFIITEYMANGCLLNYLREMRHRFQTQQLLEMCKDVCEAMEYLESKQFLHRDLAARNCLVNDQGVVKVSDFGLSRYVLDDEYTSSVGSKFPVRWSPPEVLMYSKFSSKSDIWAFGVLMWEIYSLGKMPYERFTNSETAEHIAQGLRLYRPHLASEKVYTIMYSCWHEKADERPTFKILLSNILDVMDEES
row,Compound,IC50
1,O=C(CNc1cc(Cl)cc(Cl)c1)N1CCCC(N(CCN2CCCCC2)c2ncnc3[nH]ccc23)C1 (centres unmarked) [Compound 88],1 to 10 µM
2,O=C(CNc1cc(Cl)cc(Cl)c1)N1CCCC(N(CCc2ccccc2)c2ncnc3[nH]ccc23)C1 (centres unmarked) [Compound 97],> 10 µM
3,C[C@@H]1C[C@H](N(C)c2ncnc3[nH]ccc23)CN(C(=O)CNc2cc(Cl)cc(Cl)c2)C1 [Compound 98],< 0.1 µM
4,CCC[C@@H](Nc1cc(Cl)cc(Cl)c1)C(=O)N1CCC2CCN(c3ncnc4[nH]ccc34)C2C1 (some centres unmarked) [Compound 101],< 0.1 µM
5,CCC[C@@H](Nc1cccc(Cl)c1)C(=O)N1CCC2CCN(c3ncnc4[nH]ccc34)C2C1 (some centres unmarked) [Compound 102],< 0.1 µM
6,C[C@@H]1C[C@H](Nc2ncnc3[nH]ncc23)CN(C(=O)CNc2cc(Cl)cc(Cl)c2)C1 [Compound 103],< 0.1 µM
7,CCCN(c1ncnc2[nH]ccc12)C1CCCN(C(=O)CNc2cc(Cl)cc(Cl)c2)C1 (centres unmarked) [Compound 106],< 0.1 µM
8,CCN(c1ncnc2[nH]ccc12)C1CCCN(C(=O)CNc2cc(Cl)cc(Cl)c2)C1 (centres unmarked) [Compound 108],0.1 to 0.999 µM
9,CC(=O)Nc1cc(N[C@H]2CCCN(C(=O)CNc3cc(Cl)cc(Cl)c3)C2)ncn1 [Compound 109],> 10 µM
10,Nc1ncnc(N[C@H]2CCCN(C(=O)CNc3cc(Cl)cc(Cl)c3)C2)c1F [Compound 110],0.1 to 0.999 µM
11,O=C(CNc1cc(Cl)cc(Cl)c1)N1CCC2CCN(c3ncnc4[nH]cnc34)C2C1 (centres unmarked) [Compound 111],< 0.1 µM
12,Nc1ncnc(N2CCC3CCN(C(=O)CNc4cc(Cl)cc(Cl)c4)CC32)c1F (centres unmarked) [Compound 112],< 0.1 µM
13,O=C(CNc1cc(Cl)cc(Cl)c1)N1CCC[C@H](Nc2ncnc3scnc23)C1 [Compound 115],> 10 µM
14,CN(c1ncnc(N)c1C#N)[C@H]1CCCN(C(=O)CNc2cc(Cl)cc(Cl)c2)C1 [Compound 116],> 10 µM
15,CC1CCCC(NCC(=O)N2CCC[C@H](Nc3ncnc4[nH]ccc34)C2)C1 (some centres unmarked) [Compound 117],> 10 µM
16,CCCN(c1ncnc2[nH]ccc12)[C@H]1CCCN(C(=O)CNc2cc(Cl)cc(Cl)c2)C1 [Compound 118],> 10 µM
17,O=C(CNc1cc(Cl)cc(Cl)c1)N1CCC[C@H](N(CCc2ccccc2)c2ncnc3[nH]ccc23)C1 [Compound 119],> 10 µM
18,O=CNc1cnc(Br)cc1N(C=O)[C@H]1CCCN(C(=O)CNc2cc(Cl)cc(Cl)c2)C1 [Compound 120],> 10 µM
19,O=CNc1cnc(Br)cc1N[C@H]1CCCN(C(=O)CN(C=O)c2cc(Cl)cc(Cl)c2)C1 [Compound 121],> 10 µM
20,O=C(CNc1cc(Cl)cc(Cl)c1)N1C[C@@H](Nc2ncnc3[nH]ccc23)C[C@@H](C(F)(F)F)C1 [Compound 122],0.1 to 0.999 µM
21,CN(c1ncnc(N)c1C(N)=O)[C@H]1CCCN(C(=O)CNc2cc(Cl)cc(Cl)c2)C1 [Compound 125],> 10 µM
22,CCN(c1ncnc2[nH]ccc12)[C@H]1CCCN(C(=O)CNc2cc(Cl)cc(Cl)c2)C1 [Compound 126],> 10 µM
23,CN(c1ncnc2[nH]ccc12)[C@@H]1CCN(C(=O)CNc2cc(Cl)cc(Cl)c2)C1 [Compound 127],1 to 10 µM
24,CC(=O)Nc1cc(N(C)[C@H]2CCCN(C(=O)CNc3cc(Cl)cc(Cl)c3)C2)ncn1 [Compound 128],> 10 µM
25,CN(c1ncnc2c1CCC(=O)N2)[C@H]1CCCN(C(=O)CNc2cc(Cl)cc(Cl)c2)C1 [Compound 129],> 10 µM

row,Compound,IC50
1,CN(c1ncnc2[nH]ncc12)[C@H]1CCN(C(=O)CNc2cc(Cl)cc(Cl)c2)C1 [Compound 130],> 10 µM
2,CN(c1ncnc2[nH]ncc12)[C@@H]1CCN(C(=O)CNc2cc(Cl)cc(Cl)c2)C1 [Compound 131],1 to 10 µM
3,CN(c1ncnc2[nH]ccc12)[C@H]1CCN(C(=O)CNc2cc(Cl)cc(Cl)c2)C1 [Compound 132],> 10 µM
4,Nc1cc(N[C@H]2CCCN(C(=O)CNc3cc(Cl)cc(Cl)c3)C2)ncn1 [Compound 133],1 to 10 µM
5,Nc1ncnc(N[C@H]2CCCN(C(=O)CNc3cc(Cl)cc(Cl)c3)C2)c1Cl [Compound 134],> 10 µM
6,O=C(CNc1cc(Cl)cc(Cl)c1)N1CCC[C@H](Nc2cc(Br)ncc2[N+](=O)[O-])C1 [Compound 136],> 10 µM
7,O=C(CNc1cc(Cl)cc(Cl)c1)N1CCC(c2ccccc2)C(Nc2ncnc3[nH]ccc23)C1 (centres unmarked) [Compound 137],> 10 µM
8,O=C(CNc1ccccc1S(=O)(=O)N1CCCCC1)N1CCC[C@H](Nc2ncnc3[nH]ccc23)C1 [Compound 138],> 10 µM
9,CC1CCC(NCC(=O)N2CCC[C@H](Nc3ncnc4[nH]ccc34)C2)CC1 (some centres unmarked) [Compound 139],> 10 µM
10,CC1CCCCC1NCC(=O)N1CCC[C@H](Nc2ncnc3[nH]ccc23)C1 (some centres unmarked) [Compound 140],> 10 µM
11,CN(c1ncnc2[nH]ncc12)C1CC2CC1N(C(=O)CNc1cc(Cl)cc(Cl)c1)C2 (centres unmarked) [Compound 141],0.1 to 0.999 µM
12,CN(c1ncnc2[nH]ccc12)[C@H]1CCCN(C(=O)CNc2cc(Cl)cc(C(F)(F)F)c2)C1 [Compound 142],0.1 to 0.999 µM
13,CN(c1cc(N)ncn1)[C@H]1CCCN(C(=O)CNc2cc(Cl)cc(Cl)c2)C1 [Compound 144],> 10 µM
14,CN(c1ncnc2[nH]ncc12)[C@H]1CCCN(C(=O)CNc2cc(Cl)cc(C(F)(F)F)c2)C1 [Compound 145],1 to 10 µM
15,CN(c1ncnc2[nH]ncc12)[C@H]1CCCN(C(=O)CNc2cc(F)cc(Cl)c2)C1 [Compound 146],1 to 10 µM
16,O=C(CNc1cc(Cl)cc(Cl)c1)N1CC[C@H](Nc2ncnc3[nH]ncc23)C1 [Compound 147],> 10 µM
17,O=C(CNC1CCCC1)N1CCC[C@H](Nc2ncnc3[nH]ccc23)C1 [Compound 149],> 10 µM
18,CN(c1ncnc2[nH]ncc12)[C@H]1CCCN(C(=O)CNc2cc(C(F)(F)F)cc(C(F)(F)F)c2)C1 [Compound 150],> 10 µM
19,CN(c1ncnc2[nH]cnc12)[C@H]1CCCN(C(=O)CNc2cc(Cl)cc(Cl)c2)C1 [Compound 151],0.1 to 0.999 µM
20,O=C(CNc1cc(Cl)cc(Cl)c1)N1CC[C@H](Nc2ncnc3[nH]ccc23)C1 [Compound 152],> 10 µM
21,O=C(CNc1cc(Cl)cc(Cl)c1)N1CC[C@@H](Nc2ncnc3[nH]ncc23)C1 [Compound 153],> 10 µM
22,O=C1CCc2c(ncnc2N[C@H]2CCCN(C(=O)CNc3cc(Cl)cc(Cl)c3)C2)N1 [Compound 154],> 10 µM
23,O=C(CNc1cc(Cl)cc(Cl)c1)N1CC[C@@H](Nc2ncnc3[nH]ccc23)C1 [Compound 155],> 10 µM
24,O=C1CCc2c(ncnc2N2CCC3CCN(C(=O)CNc4cc(Cl)cc(Cl)c4)CC32)N1 (centres unmarked) [Compound 156],1 to 10 µM
25,Nc1nc(N[C@H]2CCCN(C(=O)CNc3cc(Cl)cc(Cl)c3)C2)c2cc[nH]c2n1 [Compound 157],> 10 µM

row,Compound,IC50
1,CCn1cnc2cnc(N[C@H]3CCCN(C(=O)CNc4cc(Cl)cc(Cl)c4)C3)cc21 [Compound 158],> 10 µM
2,Nc1cc(N2CCC3CCN(C(=O)CNc4cc(Cl)cc(Cl)c4)CC32)ncn1 (centres unmarked) [Compound 159],< 0.1 µM
3,N#Cc1c(N)ncnc1N[C@H]1CCCN(C(=O)CNc2cc(Cl)cc(Cl)c2)C1 [Compound 161],> 10 µM
4,O=C(CNC1CCCCC1)N1CCC[C@H](Nc2ncnc3[nH]ccc23)C1 [Compound 162],> 10 µM
5,CN(c1ncnc2[nH]ccc12)C1CC2CC1N(C(=O)CNc1cc(Cl)cc(Cl)c1)C2 (centres unmarked) [Compound 163],1 to 10 µM
6,Nc1nccc(N[C@H]2CCCN(C(=O)CNc3cc(Cl)cc(Cl)c3)C2)n1 [Compound 164],> 10 µM
7,CN(c1ncnc2[nH]ccc12)[C@@H]1CCCN(C(=O)CNc2cc(F)cc(Cl)c2)C1 [Compound 165],0.1 to 0.999 µM
8,CN(c1ncnc2[nH]ccc12)[C@@H]1CCCN(C(=O)CNc2cc(C(F)(F)F)cc(C(F)(F)F)c2)C1 [Compound 166],> 10 µM
9,COc1c(N)ncnc1N[C@H]1CCCN(C(=O)CNc2cc(Cl)cc(Cl)c2)C1 [Compound 168],> 10 µM
10,O=C(CNc1cc(Cl)cc(Cl)c1)N1CCC[C@H](Nc2ccnc3[nH]ccc23)C1 [Compound 169],< 0.1 µM
11,O=C(CNc1cc(Cl)cc(Cl)c1)N1CC2CC(Nc3ncnc4[nH]ncc34)C1C2 (centres unmarked) [Compound 171],< 0.1 µM
12,O=C(CNc1cc(Cl)cc(Cl)c1)N1CCC[C@H](Nc2ncnc3[nH]cnc23)C1 [Compound 175],0.1 to 0.999 µM
13,O=C(CNc1cc(F)cc(C(F)(F)F)c1)N1CCC[C@H](Nc2ncnc3[nH]ncc23)C1 [Compound 177],1 to 10 µM
14,O=C(CNc1cc(Cl)cc(C(F)(F)F)c1)N1CCC[C@H](Nc2ncnc3[nH]ncc23)C1 [Compound 178],1 to 10 µM
15,O=C(CNc1ccccc1)N1CCCC(Nc2ncnc3[nH]ncc23)C1 (centres unmarked) [Compound 179],1 to 10 µM
16,O=C(CNc1cccc(F)c1)N1CCC[C@H](Nc2ncnc3[nH]ncc23)C1 [Compound 182],> 10 µM
17,O=C(CNc1ccc(Cl)cc1)N1CCC[C@H](Nc2ncnc3[nH]ncc23)C1 [Compound 184],> 10 µM
18,O=C(CNc1cc(C(F)(F)F)cc(C(F)(F)F)c1)N1CCC[C@H](Nc2ncnc3[nH]ncc23)C1 [Compound 185],1 to 10 µM
19,O=C(CNc1cc(C(F)(F)F)cc(C(F)(F)F)c1)N1CCC[C@H](Nc2ncnc3[nH]ncc23)C1 [Compound 186],> 10 µM
20,O=C(CNc1cc(C(F)(F)F)cc(C(F)(F)F)c1)N1CCC[C@H](Nc2ncnc3[nH]ccc23)C1 [Compound 187],1 to 10 µM
21,O=C(CNc1cccc(F)c1)N1CCC[C@H](Nc2ncnc3[nH]ccc23)C1 [Compound 188],1 to 10 µM
22,O=C(CNc1cc(Cl)cc(Cl)c1)N1CC(Nc2ncnc3[nH]ccc23)Cc2ccccc21 (centres unmarked) [Compound 190],0.1 to 0.999 µM
23,O=C(CNc1cc(Cl)cc(Cl)c1)N1CC(Nc2ncnc3[nH]ncc23)Cc2ccccc21 (centres unmarked) [Compound 191],0.1 to 0.999 µM
24,O=C(CNc1ccc(F)cc1)N1CCC[C@H](Nc2ncnc3[nH]ccc23)C1 [Compound 193],> 10 µM
